For data set [1] the following is noted: cited from earlier work.
The target of data set [2] is T1, hERG channel (Homo sapiens, UniProt Q12809).
Text: (§1) Inhibition of hERG current was experimentally assessed using a previously described protocol [19]. Briefly, Chinese hamster ovary (CHO) cells stably expressing the hERG channel were dislodged from tissue culture flasks and dispensed into PPC plates. Background leak currents were estimated by initiating a 100 ms step to -80 mV from an initial holding potential of -70 mV and subtracted from the subsequent current measurement. For each drug concentration, sequential voltage pulses were applied, each using a 100 ms step to -30 mV from a holding potential of -70 mV, a 2 s conditioning step to +45 mV, and a 2 s test step to -30 mV. Small molecule effects on hERG current density were quantified by measuring the peak tail current prior to compound application and dividing by the amplitude following application of each test concentration. […] Data were fit to a sigmoidal dose response curve using Origin 6.0 (Microcal).
The subject of data set [3] is recombinantly expressed hERG channels. As to conditions: cited from earlier work; call rule not given here.
Another data set deals with hERG current. Conditions: cited from earlier work.
For data set [4], the target named is T1, hERG channel. In words: cell-based.
Text: as §1
Where [5] appears, read: drug on LQT Drug List, the Cell Line (HL60, MCF7, PC3) is the cell line of the expression profile.
[6] abbreviates: on LQT Drug List, the Cell Line (HL60, MCF7, PC3) names the expression profile.
[7] abbreviates: hERG inhibition annotation of the drug, the Cell Line (HL60, MCF7, PC3) is the cell line of the expression profile, not of the hERG test.
The mark [8] stands for this setting: inhibitor means 50% or more decrease of hERG current at 10 µM, acute recording.

Data on 24 compounds can be found in PMC3720659, “Integrated Analysis of Drug-Induced Gene Expression Profiles Predicts Novel hERG Inhibitors” (PLoS ONE, 2013).

Usually IC50 stands for the concentration needed to halve the response being measured.

Molecules are shown by their SMILES. Where two headings read alike, the source gives them in different places.

T1 sequence (Q12809 whole entry): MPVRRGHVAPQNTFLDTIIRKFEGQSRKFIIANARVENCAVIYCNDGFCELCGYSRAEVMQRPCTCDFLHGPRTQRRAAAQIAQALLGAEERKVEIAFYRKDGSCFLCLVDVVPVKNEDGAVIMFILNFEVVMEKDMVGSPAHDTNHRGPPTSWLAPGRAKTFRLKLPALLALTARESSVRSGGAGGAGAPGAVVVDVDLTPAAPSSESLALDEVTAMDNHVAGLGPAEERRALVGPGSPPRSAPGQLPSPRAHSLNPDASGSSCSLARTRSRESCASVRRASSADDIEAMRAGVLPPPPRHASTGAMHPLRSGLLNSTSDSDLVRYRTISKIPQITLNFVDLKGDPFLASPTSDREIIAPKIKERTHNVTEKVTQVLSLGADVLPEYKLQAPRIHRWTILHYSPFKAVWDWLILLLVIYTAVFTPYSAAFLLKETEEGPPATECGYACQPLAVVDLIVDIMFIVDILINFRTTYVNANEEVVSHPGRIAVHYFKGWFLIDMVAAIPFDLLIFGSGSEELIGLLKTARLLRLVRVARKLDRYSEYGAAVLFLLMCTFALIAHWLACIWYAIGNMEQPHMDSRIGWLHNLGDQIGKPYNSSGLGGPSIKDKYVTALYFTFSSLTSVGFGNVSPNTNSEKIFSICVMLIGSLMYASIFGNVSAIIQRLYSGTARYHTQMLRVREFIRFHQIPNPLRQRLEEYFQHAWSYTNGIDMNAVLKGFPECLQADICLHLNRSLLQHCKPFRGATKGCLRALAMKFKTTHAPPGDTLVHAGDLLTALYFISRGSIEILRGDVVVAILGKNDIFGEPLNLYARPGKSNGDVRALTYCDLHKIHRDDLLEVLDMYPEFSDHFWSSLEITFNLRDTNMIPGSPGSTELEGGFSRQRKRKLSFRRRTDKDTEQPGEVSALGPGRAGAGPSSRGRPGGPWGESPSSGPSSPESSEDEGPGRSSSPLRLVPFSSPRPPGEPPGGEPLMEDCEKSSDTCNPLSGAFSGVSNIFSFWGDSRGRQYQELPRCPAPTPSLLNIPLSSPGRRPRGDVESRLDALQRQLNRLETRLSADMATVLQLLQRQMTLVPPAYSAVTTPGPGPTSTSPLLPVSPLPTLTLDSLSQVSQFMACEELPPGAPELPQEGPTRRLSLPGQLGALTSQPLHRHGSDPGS

For `CC1COc2c(N3CCN(C)CC3)c(F)cc3c(=O)c(C(=O)O)cn1c23` (stereo not drawn) [ofloxacin], in data set [1] (setting [5]), the “Annotation (LQT Drug)” value was “LQT Drug”.
As to `COC1=C2C[C@@H](C)C[C@H](OC)[C@H](O)[C@@H](C)/C=C(\C)[C@H](OC(N)=O)[C@@H](OC)/C=C\C=C(/C)C(=O)NC(=CC1=O)C2=O` [geldanamycin], in data set [1] (setting [5]), the “Annotation (LQT Drug)” value is given as “LQT Drug”.
For `CC(=O)N1CCN(c2ccc(OCC3COC(Cn4ccnc4)(c4ccc(Cl)cc4Cl)O3)cc2)CC1` (stereo not drawn) [ketoconazole], the “Annotation (LQT Drug)” value in data set [1] (setting [5]) is recorded as “LQT Drug”.
With `CC(Cc1ccccc1)NCCC(c1ccccc1)c1ccccc1` (stereo not drawn) [prenylamine], the “Annotation (LQT Drug)” value in data set [1] (setting [5]) was “LQT Drug”.
As to `CC(CCc1ccc(O)cc1)NCCc1ccc(O)c(O)c1` (stereo not drawn) [dobutamine], the “Annotation (LQT Drug)” value in data set [1] (setting [6]) was “LQT Drug”.
In the case of `CCCCC(CC)CN1CN(CC(CC)CCCC)CC(C)(N)C1` (stereo not drawn) [Hexetidine], on hERG channel [2], the “Behaviour during hERG electrophysiology recording” value is recorded as “appears to disrupt the membrane seal during recording”.
For `CCN(CC)CCOc1ccc(C(=C(Cl)c2ccccc2)c2ccccc2)cc1` [Clomiphene], in data set [3] (read-out: IC50 for inhibition of the current of recombinantly expressed hERG channels), the IC50 was 180 nM.
On to `CNCCCC12CCC(c3ccccc31)c1ccccc12` [maprotiline], for which, in data set [1] (setting [5]), the “Annotation (LQT Drug)” value is listed as “LQT Drug”.
For `NC12CC3CC(CC(C3)C1)C2` [amantadine], the “Annotation (LQT Drug)” value in data set [1] (setting [6]) is on record as “LQT Drug”.
Turning to `OC(c1cc(C(F)(F)F)nc2c(C(F)(F)F)cccc12)C1CCCCN1` (stereo not drawn) [Mefloquine, reference compound], in the data set with hERG current, the “Annotation (hERG Active / Inactive)” value is reported as “Inactive” and the “hERG inhibition call in the high-throughput electrophysiology assay” value was “inactive”. In data set [3], the “Inhibition of hERG channels recombinantly expressed in cell lines” value is on record as “inhibit”.
The compound `CC(NCCC(c1ccccc1)c1ccccc1)c1ccccc1` (stereo not drawn) [Fendiline, reference compound] came in with an IC50 on hERG channel [4] of 2600 ± 100 nM. Moreover, the “Association with drug-induced LQT” value in data set [1] (previous literature, not in the LQT drug lists used) is given as “drug-induced LQT”.
For the compound `Clc1ccc(C(OCCN2CCCCC2)c2ccccc2)cc1` (stereo not drawn) [Cloperastine], the IC50 against hERG channel [4] amounted to 360 ± 50 nM.
`CNCCC=C1c2ccccc2CCc2ccccc21` [nortriptyline]: the “Annotation (LQT Drug)” value in data set [1] (setting [5]) is “LQT Drug”.
For the compound `Cc1cccc(C)c1OCC(C)N` (stereo not drawn) [mexiletine], the “Annotation (LQT Drug)” value in data set [1] (setting [5]) is “LQT Drug”.
For the compound `COc1cc2nc(N(C)CCCNC(=O)C3CCCO3)nc(N)c2cc1OC` (stereo not drawn) [alfuzosin], the “Annotation (LQT Drug)” value in data set [1] (setting [6]) is “LQT Drug”.
As for `CNCCCN1c2ccccc2CCc2ccccc21` [desipramine], in data set [1] (setting [6]), the “Annotation (LQT Drug)” value is “LQT Drug”.
As for `OCCN1CCN(CCCN2c3ccccc3Sc3ccc(C(F)(F)F)cc32)CC1` [fluphenazine], in data set [1] (setting [5]), the “Annotation (LQT Drug)” value is “LQT Drug”.
As to `CN(C)CCC=C1c2ccccc2CCc2ccccc21` [amitriptyline], the “Annotation (LQT Drug)” value in data set [1] (setting [6]) is given as “LQT Drug”.
For the compound `Clc1ccc(COC(Cn2ccnc2)c2ccc(Cl)cc2Cl)c(Cl)c1` (stereo not drawn) [Miconazole, reference compound], the “Annotation (hERG Active / Inactive)” value with hERG current (setting [7]) is given as “Inactive”. Moreover, in the data set on hERG current (setting [8]), the “hERG inhibition call in the high-throughput electrophysiology assay” value is “inactive”. In addition, the “Inhibition of hERG channels recombinantly expressed in cell lines” value in data set [3] was “inhibit”.
Turning to `CC1Cc2ccccc2N1NC(=O)c1ccc(Cl)c(S(N)(=O)=O)c1` (stereo not drawn) [indapamide], the “Annotation (LQT Drug)” value in data set [1] (setting [5]) is given as “LQT Drug”.
Turning to `Clc1ccc2c(c1)C(N1CCNCC1)=Nc1ccccc1O2` [Amoxapine, reference compound], the “hERG inhibition call in the high-throughput electrophysiology assay” value with hERG current (setting [8]) was “negatives”. For the same compound, the “Annotation (LQT Drug)” value in data set [1] (setting [6]) was “LQT Drug”.
As for `CCN(CC)CCCC(C)Nc1ccnc2cc(Cl)ccc12` (stereo not drawn) [chloroquine], the “Annotation (LQT Drug)” value in data set [1] (setting [6]) is listed as “LQT Drug”.
Consider `CC(=O)[C@H]1CC[C@H]2[C@@H]3CCC4=CC(=O)CC[C@]4(C)[C@H]3CC[C@]12C` [progesterone], for which the “Annotation (hERG Active / Inactive)” value with hERG current (setting [7]) is reported as “Inactive”.
On to `C[C@@H]1NCCc2cc(O)c(O)cc21` [salsolinol], for which the “Annotation (hERG inhibition class, Active/Inactive by IC50)” value in the data set on hERG current (annotation of the drug, Cell Line (HL60, MCF7, PC3) is the cell line of the drug-induced expression profile, not of the hERG assay, ref hERGcentral) is “Inactive”.
